Reference: ChEMBL document CHEMBL1201862, “PubChem BioAssay data set” (2004)
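Following 48 hours of exposure in 96-well plates, responses at five concentrations were used to interpolate endpoints linearly. Abbreviation: GI50, concentration required for 50% inhibition of growth.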 Activity calls are given as the source filed them. Cut-off read from the data, not from the text of the source: active = GI50 up to about 1.1 µM and inactive = higher.

Columns and labels:
Experiment in all cases: growth of human tumour cells (NCI), 48 h
[1] = tested on: DLD-1
[2] = tested on: DMS-114
[3] = tested on: SW-620
[4] = tested on: NCI-H460
[5] = tested on: A549
[6] = tested on: UACC-257
[7] = tested on: MOLT-4
[8] = tested on: SK-MEL-5
[9] = tested on: NCI-H226
[10] = tested on: HOP-62
[11] = tested on: SK-MEL-2
[12] = tested on: COLO 205
[13] = tested on: SNB-19
[14] = tested on: Malme-3M
[15] = tested on: M14
[16] = tested on: UACC-62
[17] = tested on: M19-MEL
[18] = tested on: SF-539
[19] = tested on: KM-20L2
[20] = tested on: NCI/ADR-RES

Measured: GI50

Cc1cccc(C(C)(C)C)c1NC(=O)CCc1nnc(S)[nH]1
inactive: [1] > 100 µM | [2] > 100 µM | [3] > 100 µM | [4] > 100 µM | [5] > 100 µM | [6] > 100 µM | [7] > 100 µM | [8] > 100 µM | [9] > 100 µM | [10] > 100 µM | [11] > 100 µM | [12] > 100 µM | [13] > 100 µM | [14] > 100 µM | [15] > 100 µM | [16] > 100 µM | [17] > 100 µM | [18] > 100 µM | [19] > 100 µM

O=c1oc2c(ccc3occc32)c(N2CCCCC2)c1-c1ccccc1
inactive: [1] > 100 µM | [2] > 86.1 µM | [3] > 100 µM | [4] > 96.4 µM | [5] > 93.3 µM | [20] > 100 µM | [8] > 72.4 µM | [10] > 100 µM | [11] > 100 µM | [12] > 100 µM | [13] > 100 µM | [14] > 100 µM | [16] > 95.1 µM | [17] > 100 µM | [18] > 100 µM | [19] > 100 µM

O=C(CC(=O)n1nc(-c2ccccc2)c(/N=N/c2ccc(Cl)cc2)c1-c1ccccc1)Nc1ccc(Cl)cc1
inactive: [1] 18.6 µM | [2] > 40.6 µM | [3] > 44.1 µM | [4] > 43.4 µM | [5] > 43.9 µM | [6] > 49.2 µM | [7] > 100 µM | [8] > 100 µM | [9] > 100 µM | [10] > 100 µM | [11] > 100 µM | [12] > 46.9 µM | [13] > 100 µM | [14] > 100 µM | [15] > 100 µM | [16] > 100 µM | [17] > 47.8 µM | [18] > 100 µM | [19] > 76 µM

Cc1cc(Cl)cc2c1NC(=O)C2(O)C(C)C(=O)c1ccc(Cl)cc1 (stereo unspecified)
inactive: [1] > 61.2 µM | [2] 37.3 µM | [3] > 74.8 µM | [4] > 100 µM | [5] > 100 µM | [6] 42.6 µM | [7] 28.4 µM | [8] 27.7 µM | [9] > 60.1 µM | [10] > 100 µM | [11] > 100 µM | [12] 97.1 µM | [13] > 100 µM | [14] > 61.7 µM | [15] > 100 µM | [16] 20.2 µM | [17] 12.8 µM | [18] > 62.1 µM | [19] > 100 µM

CCOC1=CP(=O)(OCC)CC(C)=C1Cl (stereo unspecified)
inactive: [1] > 100 µM | [2] > 100 µM | [3] > 100 µM | [4] > 100 µM | [5] > 100 µM | [6] > 100 µM | [7] > 100 µM | [8] > 100 µM | [9] > 100 µM | [10] > 100 µM | [11] > 100 µM | [12] 7.21 µM | [13] > 100 µM | [14] > 100 µM | [15] > 100 µM | [16] > 100 µM | [17] > 100 µM | [18] > 100 µM | [19] > 100 µM

Cc1ccccc1C(=O)c1c(O)c2c(c(O)c1Br)CCCC2
inactive: [1] 23 µM | [2] 13.6 µM | [3] 18.7 µM | [4] 22 µM | [5] 23.2 µM | [6] 14.7 µM | [7] 6.14 µM | [8] 18.5 µM | [9] 25.4 µM | [10] 37.2 µM | [11] 16.7 µM | [12] 18.9 µM | [13] 23 µM | [14] 11.5 µM | [15] 14 µM | [16] 15.1 µM | [17] 15.6 µM | [18] 18.5 µM | [19] 19.4 µM

CCCC/C=C1\CCC(CN2CCOCC2)C1=O (stereo unspecified)
inactive: [1] 1.75 µM | [2] 4.86 µM | [3] 2.1 µM | [4] 18.2 µM | [5] 20.4 µM | [6] 5.28 µM | [7] 2.02 µM | [8] 12 µM | [9] 8.63 µM | [10] 15.7 µM | [11] 10.1 µM | [12] 2.97 µM | [13] 15.8 µM | [14] 2.19 µM | [15] 3.32 µM | [16] 6.4 µM | [17] 4.02 µM | [18] 7.73 µM | [19] 4.89 µM

C=C1CCC23CC(CC[C@@H]2[C@@]12C[C@@H](c1ccoc1)OC2=O)OC3=O (stereo partly specified)
inactive: [1] > 100 µM | [2] > 100 µM | [3] > 100 µM | [4] > 100 µM | [5] > 100 µM | [6] > 100 µM | [7] > 100 µM | [8] > 100 µM | [9] > 100 µM | [10] > 100 µM | [11] > 100 µM | [12] > 100 µM | [13] > 100 µM | [14] > 100 µM | [15] > 100 µM | [16] > 100 µM | [17] > 100 µM | [18] > 100 µM | [19] > 100 µM

O=c1nc(-c2ccccc2)scc1-c1ccccc1
inactive: [1] > 100 µM | [2] > 100 µM | [3] > 100 µM | [4] > 100 µM | [5] > 100 µM | [6] > 100 µM | [7] > 100 µM | [8] > 100 µM | [9] > 100 µM | [10] 44.7 µM | [11] > 100 µM | [12] > 100 µM | [13] 59.7 µM | [14] > 100 µM | [15] > 100 µM | [16] 35.5 µM | [17] > 100 µM | [18] > 100 µM | [19] > 100 µM

N#C/N=C(/N)NCO
inactive: [1] > 54 µM | [2] > 43 µM | [3] > 37.8 µM | [4] > 78 µM | [5] > 57.4 µM | [6] > 100 µM | [7] > 100 µM | [8] > 100 µM | [9] > 100 µM | [10] > 100 µM | [11] > 100 µM | [12] > 42.1 µM | [13] > 100 µM | [14] > 100 µM | [15] > 100 µM | [16] > 100 µM | [17] > 60.5 µM | [18] > 100 µM | [19] > 51.4 µM

N#CC(C#N)=Cc1ccc(C(O)P(=O)(O)O)cc1 (stereo unspecified)
inactive: [1] > 100 µM | [2] > 100 µM | [3] > 100 µM | [4] > 100 µM | [5] > 100 µM | [6] > 100 µM | [7] > 100 µM | [8] > 100 µM | [9] > 100 µM | [10] > 100 µM | [11] > 100 µM | [12] > 100 µM | [13] > 100 µM | [14] > 100 µM | [15] > 100 µM | [16] > 100 µM | [17] > 100 µM | [18] > 100 µM | [19] > 100 µM
